Test results published in ChEMBL document CHEMBL2086254, “Synthesis and identification of novel indolo[2,3-a]pyrimido[5,4-c]carbazoles as a new class of anti-cancer agents” (Eur J Med Chem, 2012).

Experiments:
Type in all cases: functional
[1] = test system: SW-620; assay: Cytotoxicity against human SW620 cells assessed as cell growth at 10 uM after 48 hrs by SRB assay relative to control; conditions: SW-620, 48 h, read-out: Activity
[2] = test system: UO-31; assay: Cytotoxicity against human UO31 cells assessed as cell growth at 10 uM after 48 hrs by SRB assay relative to control; conditions: UO-31, 48 h, read-out: Activity
[3] = test system: A498; assay: Cytotoxicity against human A498 cells assessed as cell growth at 10 uM after 48 hrs by SRB assay relative to control; conditions: A498, 48 h, read-out: Activity
[4] = test system: SF-295; assay: Cytotoxicity against human SF295 cells assessed as cell growth at 10 uM after 48 hrs by SRB assay relative to control; conditions: SF-295, 48 h, read-out: Activity
[5] = test system: U-251; assay: Cytotoxicity against human U251 cells assessed as cell growth at 10 uM after 48 hrs by SRB assay relative to control; conditions: U-251, 48 h, read-out: Activity
[6] = test system: RPMI-8226; assay: Cytotoxicity against human RPMI8226 cells assessed as cell growth at 10 uM after 48 hrs by SRB assay relative to control; conditions: RPMI-8226, 48 h, read-out: Activity
[7] = test system: SK-MEL-2; assay: Cytotoxicity against human SK-MEL-2 cells assessed as cell growth at 10 uM after 48 hrs by SRB assay relative to control; conditions: SK-MEL-2, 48 h, read-out: Activity
[8] = test system: HCC 2998; assay: Cytotoxicity against human HCC2998 cells assessed as cell growth at 10 uM after 48 hrs by SRB assay relative to control; conditions: HCC 2998, 48 h, read-out: Activity
[9] = test system: UACC-62; assay: Cytotoxicity against human UACC62 cells assessed as cell growth at 10 uM after 48 hrs by SRB assay relative to control; conditions: UACC-62, 48 h, read-out: Activity
[10] = test system: MDA-MB-435; assay: Cytotoxicity against human MDA-MB-435 cells assessed cell growth at 10 uM after 48 hrs by SRB assay relative to control
[11] = test system: K562; assay: Cytotoxicity against human K562 cells assessed as cell growth at 10 uM after 48 hrs by SRB assay relative to control; conditions: K562, 48 h, read-out: Activity
[12] = test system: HCT-15; assay: Cytotoxicity against human HCT15 cells assessed as cell growth at 10 uM after 48 hrs by SRB assay relative to control; conditions: HCT-15, 48 h, read-out: Activity
[13] = test system: MDA-MB-468; assay: Cytotoxicity against human MDA-MB-468 cells assessed as cell growth at 10 uM after 48 hrs by SRB assay relative to control; conditions: MDA-MB-468, 48 h, read-out: Activity
[14] = Cytotoxicity against human Hs 578T cells assessed as cell growth at 10 uM after 48 hrs by SRB assay relative to control; conditions: read-out: Activity
[15] = test system: RXF 393; assay: Cytotoxicity against human RXF393 cells assessed as cell growth at 10 uM after 48 hrs by SRB assay relative to control; conditions: RXF 393, 48 h, read-out: Activity
[16] = test system: ACHN; assay: Cytotoxicity against human ACHN cells assessed as cell growth at 10 uM after 48 hrs by SRB assay relative to control; conditions: read-out: Activity
[17] = test system: OVCAR-3; assay: Cytotoxicity against human OVCAR3 cells assessed as cell growth at 10 uM after 48 hrs by SRB assay relative to control; conditions: OVCAR-3, 48 h, read-out: Activity
[18] = test system: SK-MEL-28; assay: Cytotoxicity against human SK-MEL-28 cells assessed as cell growth at 10 uM after 48 hrs by SRB assay relative to control; conditions: SK-MEL-28, 48 h, read-out: Activity
[19] = test system: TK-10; assay: Cytotoxicity against human TK10 cells assessed as cell growth at 10 uM after 48 hrs by SRB assay relative to control; conditions: TK-10, 48 h, read-out: Activity
[20] = test system: NCI-H226; assay: Cytotoxicity against human NCI-H226 cells assessed as cell growth at 10 uM after 48 hrs by SRB assay relative to control; conditions: NCI-H226, 48 h, read-out: Activity
[21] = test system: SK-MEL-5; assay: Cytotoxicity against human SK-MEL-5 cells assessed as cell growth at 10 uM after 48 hrs by SRB assay relative to control; conditions: SK-MEL-5, 48 h, read-out: Activity
[22] = test system: SNB-75; assay: Cytotoxicity against human SNB75 cells assessed as cell growth at 10 uM after 48 hrs by SRB assay relative to control; conditions: SNB-75, 48 h, read-out: Activity
[23] = test system: A549; assay: Cytotoxicity against human A549 cells assessed as cell growth at 10 uM after 48 hrs by SRB assay relative to control; conditions: A549, 48 h, read-out: Activity
[24] = test system: NCI/ADR-RES; assay: Cytotoxicity against human NCI/ADR-RES cells assessed as cell growth at 10 uM after 48 hrs by SRB assay relative to control; conditions: read-out: Activity
[25] = test system: HOP-62; assay: Cytotoxicity against human HOP62 cells assessed as cell growth at 10 uM after 48 hrs by SRB assay relative to control; conditions: HOP-62, 48 h, read-out: Activity
[26] = test system: SF-539; assay: Cytotoxicity against human SF539 cells assessed as cell growth at 10 uM after 48 hrs by SRB assay relative to control; conditions: SF-539, 48 h, read-out: Activity
[27] = test system: IGROV-1; assay: Cytotoxicity against human IGROV1 cells assessed as cell growth at 10 uM after 48 hrs by SRB assay relative to control; conditions: IGROV-1, 48 h, read-out: Activity
[28] = test system: NCI-H23; assay: Cytotoxicity against human NCI-H23 cells assessed as cell growth at 10 uM after 48 hrs by SRB assay relative to control; conditions: NCI-H23, 48 h, read-out: Activity
[29] = test system: CAKI-1; assay: Cytotoxicity against human Caki1 cells assessed as cell growth at 10 uM after 48 hrs by SRB assay relative to control; conditions: CAKI-1, 48 h, read-out: Activity
[30] = test system: LOX IMVI; assay: Cytotoxicity against human LOXIMVI cells assessed as cell growth at 10 uM after 48 hrs by SRB assay relative to control; conditions: read-out: Activity
[31] = test system: MCF7; assay: Cytotoxicity against human MCF7 cells assessed as cell growth at 10 uM after 48 hrs by SRB assay relative to control; conditions: MCF7, 48 h, read-out: Activity
[32] = test system: OVCAR-8; assay: Cytotoxicity against human OVCAR8 cells assessed as cell growth at 10 uM after 48 hrs by SRB assay relative to control; conditions: OVCAR-8, 48 h, read-out: Activity
[33] = test system: SK-OV-3; assay: Cytotoxicity against human SKOV3 cells assessed as cell growth at 10 uM after 48 hrs by SRB assay relative to control; conditions: SK-OV-3, 48 h, read-out: Activity
[34] = test system: M14; assay: Cytotoxicity against human M14 cells assessed as cell growth at 10 uM after 48 hrs by SRB assay relative to control; conditions: M14, 48 h, read-out: Activity
[35] = test system: HCT-116; assay: Cytotoxicity against human HCT116 cells assessed as cell growth at 10 uM after 48 hrs by SRB assay relative to control; conditions: HCT-116, 48 h, read-out: Activity

Compound	growth at 10 µM [1] [%]	growth at 10 µM [2] [%]	growth at 10 µM [3] [%]	growth at 10 µM [4] [%]	growth at 10 µM [5] [%]	growth at 10 µM [6] [%]	growth at 10 µM [7] [%]	growth at 10 µM [8] [%]	growth at 10 µM [9] [%]	Activity [10] [%]	growth at 10 µM [11] [%]	growth at 10 µM [12] [%]	growth at 10 µM [13] [%]	growth at 10 µM [14] [%]	growth at 10 µM [15] [%]	growth at 10 µM [16] [%]	growth at 10 µM [17] [%]	growth at 10 µM [18] [%]	growth at 10 µM [19] [%]	growth at 10 µM [20] [%]	further results
Cn1c2ccccc2c2c3nc(N)[nH]c(=O)c3c3c4ccccc4n(C)c3c21	31.6	7.16	114	86.6	76.1	61.4	32	60.9	81.3	24.36	44.4	43.7	80.3	113	94	29.5	82.9	91	50.1	78.1	growth at 10 µM [21]: 48.8%; growth at 10 µM [22]: 96.8%; growth at 10 µM [23]: 58.5%; growth at 10 µM [24]: 48.7%; growth at 10 µM [25]: 95.2%; growth at 10 µM [26]: 99.1%; growth at 10 µM [27]: 65.8%; growth at 10 µM [28]: 65.4%; growth at 10 µM [29]: -14.9%; growth at 10 µM [30]: 60.9%; growth at 10 µM [31]: 25%; growth at 10 µM [32]: 43.1%; growth at 10 µM [33]: 34.9%; growth at 10 µM [34]: 34.9%; growth at 10 µM [35]: 34%
Cn1cc(-c2nc(N)[nH]c(=O)c2-c2cn(C)c3ccccc23)c2ccccc21	94	64.6	112	90.7	100	111	102	120	96.1	109.77	111	117	106	103	131	98.5	109	118	82.3	91	growth at 10 µM [21]: 101%; growth at 10 µM [22]: 103%; growth at 10 µM [23]: 101%; growth at 10 µM [24]: 108%; growth at 10 µM [25]: 85.3%; growth at 10 µM [26]: 141%; growth at 10 µM [27]: 68.9%; growth at 10 µM [28]: 95%; growth at 10 µM [29]: 94.6%; growth at 10 µM [30]: 118%; growth at 10 µM [31]: 77.6%; growth at 10 µM [32]: 97.5%; growth at 10 µM [33]: 95.8%; growth at 10 µM [34]: 97.6%; growth at 10 µM [35]: 99%
